From ChEMBL document CHEMBL2439954, “3D-QSAR using pharmacophore-based alignment and virtual screening for discovery of novel MCF-7 cell line inhibitors” (Eur J Med Chem, 2013)

test system: MCF7; test: Cytotoxicity against human MCF7 cells after 48 hrs by MTT assay; assay type: functional, cell-based; settings: MCF7, 48 h

`Cc1ccc(C)c(C(=O)C2=C(O)C(=O)N(Cc3ccco3)C2c2cccnc2)c1` (stereo not given) was tested. Which IC50 did it give?
Its IC50 is over 200 µM.

How did the IC50 turn out when `Nc1ccc(Oc2ccc3nc(-c4ccccc4)c(-c4ccc(N)cc4)nc3c2)cc1` was run?
Its IC50 is 65.4 µM.

For `CCc1cccc(CC)c1N(COC)C(=O)Cn1c(CO)nc2ccccc21`, which IC50 is on record?
Its IC50 is 123 µM.

How did the IC50 turn out when `COc1ccc(-c2cc(C(F)(F)F)n3ncc(C(=O)NC(C)c4ccccc4)c3n2)cc1OC` (stereo not given) was run?
The IC50 was 30.2 µM.

For `Cc1cc(C(=O)C2=C(O)C(=O)N(CCN3CCOCC3)C2c2ccncc2)ccc1OCC(C)C` (stereo not given), which IC50 is on record?
The IC50 was 151 µM.

For `C[C@]12CC[C@H](O)CC1=CC[C@@H]1[C@@H]2CC[C@]2(C)C(=O)CC[C@@H]12` [PRASTERONE], which IC50 is on record?
The IC50 was over 200 µM.

How did the IC50 turn out when `CCOc1cccc(C(=O)C2=C(O)C(=O)N(Cc3ccco3)C2c2cccnc2)c1` (stereo not given) was run?
Its IC50 is 181 µM.

How did the IC50 turn out when `COc1cccc(NC(=O)COc2ccc(C3C(C#N)=C(N)Oc4[nH]nc(C)c43)cc2)c1` (stereo not given) was run?
Its IC50 is 38.5 µM.

For `Nc1ccc(-c2nc3cc(N)ccc3n2CCO)cc1`, which IC50 is on record?
The IC50 was over 200 µM.

For `CC/C(=C(\c1ccccc1)c1ccc(OCCN(C)C)cc1)c1ccccc1` [TAMOXIFEN], which IC50 is on record?
Its IC50 is 15.2 µM.

`Cc1ccc(/C=N\NC(=O)Cn2c(-c3nonc3N)nc3ccccc32)cc1` was tested. Which IC50 did it give?
The IC50 was 172 µM.

With `COc1ccc(-n2c(SCC(=O)Nc3cccc(C(C)=O)c3)nnc2-c2ccccc2OC)cc1` as the compound, how does the IC50 read?
The IC50 was over 200 µM.

`COc1ccc(COC(=O)/C(=C(\C)NC(N)=O)C(C)c2ccccc2OCc2ccccc2)cc1` (stereo not given) was tested. Which IC50 did it give?
The IC50 was 108 µM.

With `COc1cc(C2C(C(=O)c3ccc(F)cc3)=C(O)C(=O)N2Cc2cccnc2)ccc1O` (stereo not given) as the compound, how does the IC50 read?
The IC50 was 185 µM.

How did the IC50 turn out when `CC(C)CC(C(=O)Nc1cccc(O)c1)N1C(=O)c2ccccc2C1=O` (stereo not given) was run?
Its IC50 is 148 µM.
